Measurements published in patent US8221975B2, “Method for detection of microorganism” (Morinaga Milk Industry Co., Ltd., priority 2007, dated 2012).

Tested on: Salmonella enteritidis IIP 604
Test: invA-PCR (378 bp) of EMA-treated Salmonella, band intensity of final amplified product
Assay type: cell-based
Details: for bands of invA gene amplified products (electrophoresis, FIG. 4): multi-step treatment (EMA 10 μg/ml-incubation-EMA 10 μg/ml)

## CC[n+]1c(-c2ccccc2)c2cc(N=[N+]=[N-])ccc2c2ccc(N)cc21 [EMA, ethidium monoazide]
Injured cells
  bands of invA gene amplified products (electrophoresis, FIG. 4): no band was detected
Live cells
  bands of invA gene amplified products (electrophoresis, FIG. 4): bands were clearly detected
multi-step: EMA 10 μg/ml + Incubation (37° C., 2 hr) + EMA 10 μg/ml, Injured cell
  Band Intensity: 0.000
multi-step: EMA 10 μg/ml + Incubation (37° C., 2 hr) + EMA 10 μg/ml, Live cell
  Band Intensity: 0.742
single-step EMA 10 μg/ml, Injured cell
  Band Intensity: 1.218
single-step EMA 10 μg/ml, Live cell
  Band Intensity: 2.856
